logP and chromatographic logP data for 44 compounds are collected here from patent publication US8501781B2 (priority 2009, dated 2013).

This data set in a line: logP by HPLC (EEC Directive 79/831 Annex V.A8). The data set is classed as physicochemical.
[1] abbreviates: [b] LC-MS, acidic range, pH 2.7, 0.1% aqueous formic acid and acetonitrile.
The mark [2] stands for this setting: [c] LC-MS, neutral range, pH 7.8, 0.001 molar aqueous ammonium bicarbonate and acetonitrile.

SMILES strings stand for the structures.

By logP is commonly meant the decadic logarithm of the partition coefficient of the neutral form, usually between octanol and water. High values mean a more lipophilic compound, low ones a more hydrophilic compound. For `Cc1cc(C(F)(F)F)nn1CC(=O)N1CCN(c2nc(C(=O)Oc3ccc4ccccc4c3)cs2)CC1` [Example 40], the logP by setting is: under setting [1], 3.81; under setting [2], 3.76.

With `Cc1ccc(Cl)cc1NC(=O)N1CCC(c2nc(C(=O)OC3CCCc4ccccc43)cs2)CC1` (stereo not drawn) [Example 125], the logP by setting is: under setting [1], 4.27; under setting [2], 4.14.

`Cc1cc(C(F)(F)F)nn1CC(=O)N1CCN(c2nc(C(=O)OC(C)C3CCCCC3)cs2)CC1` (stereo not drawn) [Example 54] yielded a log partition coefficient (logP) under setting [1] of 4.4 and a logP under setting [2] of 4.46.

As for `O=C(OC1CCCc2ccccc21)c1csc(C2CCN(C(=O)Cc3cc(Cl)ccc3Cl)CC2)n1` (stereo not drawn) [Example 99], the lipophilicity (logP) under setting [1] was 4.73^[b].

For the compound `Cc1cc(C(F)(F)F)nn1CC(=O)N1CCC(F)(c2nc(C(=O)O[C@@H]3CCCc4ccccc43)cs2)CC1` [Example 127], under setting [1], the lipophilicity (logP) was 4.25^[b].

In the case of `Cc1cc(C(F)(F)F)nn1CC(=O)N1CCN(c2nc(C(=O)OC3CCCC(C(F)(F)F)C3)cs2)CC1` (stereo not drawn) [Example 32], the logP under setting [2] was 3.81^[c].

`Cc1oc(-c2ccccc2)nc1CC(=O)N1CCC(c2nc(C(=O)OC3CCCCC3)cs2)CC1` [Example 22]: under setting [1], the log partition coefficient (logP) was 4.15^[b].

Take `Cc1ccc(C)c(NC(=S)N2CCC(c3nc(C(=O)OCc4ccccc4Br)cs3)CC2)c1` [Example 88]: the lipophilicity (logP) is, setting by setting: under setting [1], 3.68; under setting [2], 3.71.

As for `Cc1cc(C(F)(F)F)nn1CC(=O)N1CCN(c2nc(C(=O)SCc3ccc(Cl)cc3Cl)cs2)CC1` [Example 50], the lipophilicity (logP) is, setting by setting: under setting [1], 4.79; under setting [2], 4.87.

`Cn1ncc(CC(=O)N2CCC(c3nc(C(=O)Oc4cccc5ccccc45)cs3)CC2)c1Cl` [Example 5]: under setting [1], the lipophilicity (logP) is 3.00^[b].

With `Cc1ccc(F)cc1NC(=O)N1CCC(c2nc(C(=O)OC3CCCCC3)cs2)CC1` [Example 74], under setting [1], the lipophilicity (logP) was 3.74^[b].

In the case of `Cc1ccc(F)cc1NC(=O)N1CCC(c2nc(C(=O)OC3CCCc4ccccc43)cs2)CC1` (stereo not drawn) [Example 79], under setting [1], the lipophilicity (logP) was 4.00^[b].

For the compound `Cc1cc(C(F)(F)F)nn1CC(=O)N1CCN(c2nc(C(=O)OC3CCCc4ccccc43)cs2)CC1` (stereo not drawn) [Example 43], the logP is 3.98 under setting [1] and 3.91 under setting [2].

Take `Cc1ccc(C)c(CC(=O)N2CCC(c3nc(C(=O)OCc4ccccc4Br)cs3)CC2)c1` [Example 102]: the logP came out at 4.23 under setting [1] and 4.27 under setting [2].

With `Cc1ccc(C)c(NC(=S)N2CCC(c3nc(C(=O)OC4CCCCC4c4ccccc4)cs3)CC2)c1` (stereo not drawn) [Example 158], the log partition coefficient (logP) under setting [1] is 4.73^[b].

Take `O=C(OCc1ccccc1Br)c1csc(C2CCN(C(=S)Nc3cc(Cl)ccc3F)CC2)n1` [Example 115]: the logP is, setting by setting: under setting [1], 4.15; under setting [2], 4.14.

For the compound `O=C(OC1CCCCC1)c1csc(C2CCN(C(=O)C(=O)c3ccco3)CC2)n1` [Example 60], the logP under setting [1] was 3.07^[b].

For the compound `CCCCC(=O)N1CCC(c2nc(C(=O)Oc3cccc4ccccc34)cs2)CC1` [Example 3], the log partition coefficient (logP) under setting [1] was 3.66^[b].

For the compound `COc1ccc(OC)c(NC(=O)N2CCC(c3nc(C(=O)OC4CCCc5ccccc54)cs3)CC2)c1` (stereo not drawn) [Example 77], the log partition coefficient (logP) under setting [1] is 4.05^[b].

Turning to `COc1ccc(C)cc1NC(=O)N1CCC(c2nc(C(=O)OCc3c(F)cccc3Cl)cs2)CC1` [Example 162], the lipophilicity (logP) under setting [1] is 3.92^[b].

For `COc1ccc(Cl)cc1NC(=O)N1CCC(c2nc(C(=O)OC3CCCCC3)cs2)CC1` [Example 75], the logP under setting [1] is 4.35^[b].

Turning to `O=C(OC1CCCCC1)c1csc(C2CCN(C(=O)Cc3cc(C(F)(F)F)ccc3Br)CC2)n1` [Example 13], the logP under setting [1] is 4.75^[b].

On to `Cc1cc(C)cc(CC(=O)N2CCC(c3nc(C(=O)OC4CCCCC4)cs3)CC2)c1` [Example 65], for which the logP is, setting by setting: under setting [1], 4.32; under setting [2], 4.34.

With `CCCCCCC(=O)N1CCC(c2nc(C(=O)OC3CCCCC3)cs2)CC1` [Example 58], under setting [1], the logP is 4.51^[b].

In the case of `Cc1ccc(C)c(NC(=O)N2CCC(c3nc(C(=O)OC4CCCCC4c4ccc(F)c(F)c4)cs3)CC2)c1` (stereo not drawn) [Example 160], under setting [1], the log partition coefficient (logP) is 4.52^[b].

Consider `O=C(OC1CCCCC1)c1csc(C2CCN(C(=O)Cc3ccsc3)CC2)n1` [Example 8], for which, under setting [1], the lipophilicity (logP) was 3.42^[b].

With `Cc1ccc(CC(=O)N2CCC(c3nc(C(=O)OC4CCCCC4)cs3)CC2)c(C)c1` [Example 66], the logP by setting is: under setting [1], 4.3; under setting [2], 4.33.

`Cc1cc(C(F)(F)F)nn1CC(=O)N1CCC(F)(c2nc(C(=O)OC3CCCCC3)cs2)CC1` [Example 170] showed a logP under setting [1] of 4.07 and a log partition coefficient (logP) under setting [2] of 4.09.

On to `O=C(OCc1ccccc1Br)c1csc(C2CCN(C(=S)Nc3cc(Cl)ccc3Cl)CC2)n1` [Example 113], for which the logP runs as follows: under setting [1], 4.4; under setting [2], 4.39.

`Cc1noc(C)c1NC(=S)N1CCC(c2nc(C(=O)OC3CCCCC3)cs2)CC1` [Example 73]: the logP under setting [1] was 3.18^[b].

As for `Cc1sc(-c2ccccc2)nc1CC(=O)N1CCC(c2nc(C(=O)Oc3cccc4ccccc34)cs2)CC1` [Example 23], the logP under setting [1] was 4.43^[b].

`Cc1ccc(Cl)cc1NC(=O)N1CCC(c2nc(C(=O)OCc3c(F)cccc3Cl)cs2)CC1` [Example 161]: under setting [1], the logP is 3.89^[b].

For `Cc1ccc(C)c(NC(=O)N2CCC(c3nc(C(=O)OCc4ccccc4I)cs3)CC2)c1` [Example 136], the logP under setting [1] is 3.96^[b].

In the case of `O=C(OCc1c(F)cccc1F)c1cnc(C2CCN(C(=O)Cn3nc(C(F)F)cc3C(F)F)CC2)s1` [Example 175], the lipophilicity (logP) under setting [1] is 3.45^[b].

Turning to `Cc1ccc(Cl)cc1NC(=O)N1CCC(F)(c2nc(C(=O)OCc3c(F)cccc3F)cs2)CC1` [Example 166], the lipophilicity (logP) runs as follows: under setting [1], 3.87; under setting [2], 3.86.

In the case of `Cc1sc(-c2ccccc2)nc1CC(=O)N1CCC(c2nc(C(=O)OC3CCCCC3)cs2)CC1` [Example 21], under setting [1], the lipophilicity (logP) is 4.57^[b].

Turning to `Cc1ccc(Cl)cc1NC(=O)N1CCC(c2nc(C(=O)OCc3c(F)cccc3F)cs2)CC1` [Example 163], the logP under setting [1] was 3.62^[b].

In the case of `Cc1ccc(C)c(NC(=S)N2CCC(c3nc(C(=O)OC4CCCc5ccccc54)cs3)CC2)c1` (stereo not drawn) [Example 81], under setting [1], the logP is 4.39^[b].

For the compound `COc1ccc(OC)c(NC(=O)N2CCC(c3nc(C(=O)OCc4ccccc4Br)cs3)CC2)c1` [Example 103], the lipophilicity (logP) runs as follows: under setting [1], 3.83; under setting [2], 3.81.

Take `Cc1ccc(Cl)cc1NC(=S)N1CCC(c2nc(C(=O)OC3CCCCC3c3ccccc3)cs2)CC1` (stereo not drawn) [Example 159]: the logP under setting [1] is 4.83^[b].

Turning to `Cc1ccc(Cl)cc1NC(=O)N1CCC(F)(c2nc(C(=O)OC3CCCCC3)cs2)CC1` [Example 167], the logP is, setting by setting: under setting [1], 4.33; under setting [2], 4.32.

Take `COc1ccc(C)cc1NC(=O)N1CCC(c2nc(C(=O)OCc3c(F)cccc3F)cs2)CC1` [Example 164]: under setting [1], the lipophilicity (logP) is 3.66^[b].

Consider `Cc1ccc(C)c(NC(=O)N2CCC(c3nc(C(=O)OCc4ccccc4Br)cs3)CC2)c1` [Example 91], for which the logP is 3.86 under setting [1] and 3.84 under setting [2].

In the case of `O=C(OC1CCCCC1)c1csc(C2CCNCC2)n1` [VII-1, 4-{4-[(Cyclohexyloxy)carbonyl]-1,3-thiazol-2-yl}piperidinium chloride], the chromatographic logP (pH 2.7, given in the preparation examples, read-out: log P (pH 2.7)) was 1.25.
